{
  "source": "patent US10966995B2",
  "about": "“Use of secoisolariciresinol diglucosides (SDGS) and related compounds for protection against radiation and chemical damage” (THE TRUSTEES OF THE UNIVERSITY OF PENNSYLVANIA, priority 2014, dated 2021)",
  "key": {"[1]": {"system": "murine primary lung cells (epithelial, endothelial and WT fibroblasts)", "assay": "Alkaline comet assay (DNA SSBs) in irradiated primary lung cells", "assay_type": "cell-based, mouse", "conditions": "2 Gy", "protocol": "(§1) Fibroblasts and endothelial cells were isolated from C57/bl6 mouse. For fibroblast isolation, mouse lungs were harvested, minced, and incubated with dispase (2 mg/ml) for 45 minutes. Pieces were plated out and fibroblasts were cultured as described previously and used between passages 3 and 10. Pulmonary microvascular endothelial cells (PMVEC) were isolated from murine lungs as described previously. Briefly, freshly harvested mouse lungs were treated with collagenase followed by isolation of cells by adherence to magnetic beads coated with mAb to platelet endothelial cell adhesion molecule (PECAM). Epithelial cells (C10) cells were originally derived from a normal BALB/c mouse lung explant and are non-tumorigenic, contact-inhibited, and have alveolar type 2 cell features at early passage.\nExponentially growing cells were cultured and treated with SDG (50 μM) at different time intervals prior to irradiation (2 Gy). Cells were processed for comet assay as per manufacturer's instructions (Trevigen, Gaithersburg, Md.). […] At least 150 cells were scored per group. Visual analysis of cells and comet tail length was measured using Comet Image Analysis software (Comet Assay IV, Perceptive Instruments Ltd, Haverhill, UK) Images were captured on an Olympus IX51 fluorescence microscope using a monochrome CCD FireWire camera."}, "[2]": {"system": "mouse epithelial cells", "assay": "BaP-induced ROS generation (redox-sensitive fluorescence dye)", "assay_type": "cell-based", "conditions": "10 or 20 μM BaP; 0.1-5 μM SDG; 2 hours", "protocol": "Exposure of murine epithelial cells to the tobacco and environmental carcinogen benzo-alpha-pyrene (BaP) induces damaging reactive oxygen species (ROS) as detected by a redox-sensitive fluorescence dye (FIG. 23). As early as 2 hours, post exposure to the carcinogen, a robust increase of fluorescence intensity indicates ROS generation in cells."}, "[3]": {"system": "mouse lung epithelial cells", "assay": "Apoptosis detection by western blotting (Bax, Bcl-2, cleaved caspase-3, cleaved PARP)", "assay_type": "cell-based", "conditions": "SDG pre-treated vs irradiated cells", "protocol": "Apoptosis was determined in mouse lung epithelial cells by levels of Bax (an apoptosis promoter), Bcl-2 (an apoptosis inhibitor), cleaved caspase-3, and cleaved poly (adenosine diphosphate-ribose) polymerase (PARP) seen using immunoblotting. Briefly, cells were lysed in PBS containing protease inhibitors. Immunoblot analysis of cell lysates was then performed using 10 well SDS 12% NuPAGE gel (Invitrogen, Carlsbad Calif.). Electrophoresis was performed at 200V for 1 hour. Transfer to PolyScreen PV transfer membrane (PerkinElmer Life Sciences, Boston, Mass.) was performed for 1 hour at 25 volts. Membrane was blocked overnight in 5% non-fat dry milk in phosphate buffered saline. The non-fat dry milk was then discarded and the membrane was incubated with primary antibody. Protein levels of Bax, Bcl-2, cleaved caspase-3, and cleaved PARP were detected using manufacturer recommended dilutions (Cell Signaling Technology, Danvers, Mass.) using rabbit anti-mouse monoclonal antibody against BAX and Bcl-2, and rabbit anti-mouse cleaved caspase-3 (Asp175), monoclonal antibody and a rabbit polyclonal anti-cleaved PARP (214/215) cleavage site specific antibody. The membrane was washed five times and then incubated in secondary antibody conjugated to horseradish peroxidase for 45 minutes at room temperature. Membranes were developed using Western Lighting Chemiluminescence Reagent Plus (PerkinElmer Life Sciences, Boston, Mass.) and quantified by densitometry scanning of specific bands (20 kDa for Bax, 26 kDa for Bcl-2, 17/19 kDa for cleaved caspase-3, and 89 kDa for cleaved PARP) that were adjusted for loading using β-actin expression level detected by specific secondary antibody (Sigma, St. Louis, Mo.)."}, "[4]": {"system": "murine primary lung cells (epithelial cells, endothelial cells and fibroblasts)", "assay": "Clonogenic survival of irradiated primary lung cells", "assay_type": "cell-based, mouse", "protocol": "as §1\nExponentially growing cells were plated as single cells and incubated overnight. Cells were treated with various doses of the lignan SDG (10-50 μM) 6 h prior to irradiation (2, 4, 6 and 8 Gy). Lignan dose was selected based on animal studies to be within the physiological levels reached in the blood circulation when 10% Flaxseed is ingested. Cells were irradiated with a Mark 1 cesium (Cs-137) irradiator (J. L. Shepherd, San Fernando, Calif.) at a dose rate of 1.7 Gy/min Colonies were stained and counted 10 to 15 days after irradiation and surviving fraction was calculated."}, "[5]": {"system": "AOE gene expression (HO-1, NQO1, GST)", "assay": "AOE gene expression in lung in the pharmacokinetic study", "assay_type": "in vivo, mouse", "conditions": "100 mg SDG/Kg oral; p<0.05", "protocol": "After selecting the 100 mg/kg dose as a dose that induces significant AOE expression while allowing for SDG to be detected in circulation, a pharmacokinetic study was performed to determine bioavailability and biological effects in target tissues (i.e., lung). Blood samples as well as tissues (lung, brain, liver, kidneys, spleen) were collected at 15 min, 30 min, and 1, 2, 4, 6, 8, 12 hours. SDG levels were determined as above in plasma and lung (FIGS. 41A-C). A single dose of 100 mg SDG/Kg was well absorbed and intact SDG was detectable in the circulation up to 6 hours post administration (FIG. 41A) and in flushed, blood-free lung tissues for 4 hours (FIG. 41B). […] The observed gene expression increase correlated with an increase in protein levels determined by western blotting (not shown). […] The use of SDG in human therapy is thus greatly facilitated and the toxicity risk is unlikely. Therefore a dose of 50-100 mg/Kg (1 or 2 mg SDG per day) is sufficient to induce the anticipated protective effects in target tissues and can be used for further study."}, "[6]": {"system": "murine primary lung fibroblasts", "assay": "γ-H2AX foci immunostaining, fibroblasts", "assay_type": "cell-based, mouse", "conditions": "SDG 50 μM 6 h prior IR; 2 Gy; irradiated control 30.0% at 30 min", "protocol": "as §1\nFor immunostaining of γ-H2AX, cells were plated on glass coverslips (5,000 cells/coverslip), pre-treated (6 h) with 50 μM SDG and irradiated (2 Gy). At desired time interval, cells were fixed (4% para-formaldehyde), washed and blocked with PBST (PBS+0.1% TritonX-100 containing 5% goat serum, 1% BSA). Cells were incubated with γ-H2AX primary antibody (1:200) overnight at 4° C. followed by washing with PBST (3×5 min) and incubation with secondary antibody (Alexa Fluor® 488, Invitrogen, Calif., USA) for 1 hr at RT. Nuclei were counterstained with DAPI and visualized under fluorescence microscope."}},
  "data": [
    {"smiles": "COc1cc(C[C@@H](CO[C@@H]2O[C@H](CO)[C@@H](O)[C@H](O)[C@H]2O)[C@H](CO[C@@H]2O[C@H](CO)[C@@H](O)[C@H](O)[C@H]2O)Cc2ccc(O)c(OC)c2)ccc1O", "note": "[SDG, secoisolariciresinol diglucoside]", "values": [
      {"measurement": "Radiation-induced comet tail length", "setting": "[1]; SDG 50 μM pre-treatment at all time intervals, all three cell types", "result": "significantly inhibited"},
      {"measurement": "Pre-treatment time giving maximum protection against radiation-induced tail moment", "setting": "[1]; SDG 50 μM, all cell types", "result": 6, "unit": "h"},
      {"measurement": "ROS", "setting": "[2]", "result": "negligible levels"},
      {"measurement": "Bax protein levels", "setting": "[3]", "result": "trended towards decreased levels"},
      {"measurement": "Bcl-2 protein levels", "setting": "[3]", "result": "trended towards decreased levels"},
      {"measurement": "Cleaved PARP levels", "setting": "[3]; 6, 24, 48 hours post-IR", "result": "trended towards decreased levels"},
      {"measurement": "Cleaved caspase-3 levels", "setting": "[3]; 6, 24, 48 hours post-IR", "result": "trended towards decreased levels"},
      {"measurement": "Colony forming ability, compound alone", "setting": "[4]; SDG 10-50 μM alone, all three cell types, vs untreated control", "result": "did not elicit any adverse effect"},
      {"measurement": "Surviving fraction", "setting": "[4]; SDG prior to irradiation, epithelial and endothelial cells (FIGS. 7A, 7B)", "result": "enhanced significantly"},
      {"measurement": "SDG concentration giving maximum protection against radiation-induced loss in clonogenicity", "setting": "[4]; fibroblasts, 6 h pre-treatment", "result": 50, "unit": "µM"},
      {"measurement": "AOE gene expression levels (HO-1, NQO1, GST) over baseline", "setting": "[5]", "result": "significantly elevated"},
      {"measurement": "γ-H2AX positive cells", "setting": "[6]", "result": "22.1%±1.9"}
    ]}
  ]
}
